The conditions of assay [1]: versus 2% sugar solution, cited from earlier work.
Assay [2] can be described thus: Brazzein sweetness activity by ascending taste test with a trained human panel. The assay is classed as in vivo, humans. As to conditions: threshold concentration at which sweetness is first felt, 500 μl samples tasted from low to high concentration. Here is the method:
Since brazzein is a protein rather than a sugar, it is not possible to measure sweetness using a saccharimeter. Therefore, the activity was measured using a taste test that measures the activity of brazzein by allowing humans to directly taste brazzein. First, brazzein was dissolved in distilled water such that the final concentration was 1.0 mg/mL, samples were prepared by varying the test concentration so as to be 30 to 0.05 ng/mL, a threshold value for feeling the sweetness for the first time was obtained by tasting the sweetness of the solution, […] The specific activity measurement method was performed as follows.
A panel of a total of 20 males and 10 females trained in the sweetness test was configured. Prior to the activity measurement, the subjects were informed of the test date and time in advance to sample the taste in their best conditions, and were prohibited from drinking alcohol on the day before the test and eating food, smoking, and the like immediately before the test. The subjects trained in advance rinsed their mouths with prepared secondary distilled water and obtained the concentration at which the sweetness was first felt while sampling the taste of 500 μl of each sample according to the concentration of each type in the order of low concentration to high concentration. […]

No end group written: not given here.

With “Brazzein: natural sweet protein of 54 amino acid residues, 6.5 kDa, from the fruit of Pentadiplandra brazzeana Baillon (QDKCKKVYENYPVSKCQLANQCNYDCKLDKHARSGECFYDEKRNLQCICDYCEY; UniProt P56552 1-54, looked up)”, the “sweetness relative to a 2% sugar solution, on a molar basis” value in assay [1] (molar basis) is around 9500 fold. Also, the “sweetness relative to a 2% sugar solution, on a molecular weight basis” value in assay [1] (molecular weight basis) is recorded as “about 2000 fold”. “K. lactis wild-type brazzein: wild-type brazzein expressed in K. lactis, used as the sweetness comparison (QDKCKKVYENYPVSKCQLANQCNYDCKLDKHARSGECFYDEKRNLQCICDYCEY; ends and bridges not checked; cysteine pairing not given here; UniProt P56552 1-54, looked up) [reference compound]”: the “sweetness activity relative to the same mass of sucrose” value in assay [2] is given as 2,309 (±6.8%) fold. With “S. cerevisiae wild-type brazzein: wild-type brazzein (SEQ ID NO: 3) secreted and expressed in Saccharomyces cerevisiae with the pESC-Brazzein vector (DKCKKVYENYPVSKCQLANQCNYDCKLDKHARSGECFYDEKRNLQCICDYCEY)”, in assay [2], the “sweetness activity relative to the same mass of sucrose” value was “about 2,260 (±5.9%) fold”.
